Source: ChEMBL document CHEMBL1201862, “PubChem BioAssay data set” (2004)
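In this assay, cells in 96-well plates receive the compound at five concentrations for 48 hours. Endpoints are linearly interpolated between the surrounding concentrations. GI50: concentration for 50% inhibition of growth.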 Activity calls are given as the source filed them. Cut-off read from the data, not from the text of the source: active = GI50 up to about 1.1 µM and inactive = higher.

Tests used:
Test in all cases: growth of human tumour cells (NCI), 48 h
LOX IMVI = system: LOX IMVI
SF-268 = system: SF-268
786-0 = system: 786-0
HCT-15 = system: HCT-15
COLO 205 = system: COLO 205
UO-31 = system: UO-31
NCI-H460 = system: NCI-H460
SK-MEL-2 = system: SK-MEL-2
M14 = system: M14
MOLT-4 = system: MOLT-4
M19-MEL = system: M19-MEL
SW-620 = system: SW-620
UACC-257 = system: UACC-257
SN12C = system: SN12C
LXFL 529 = system: LXFL 529
NCI-H226 = system: NCI-H226

Row | Compound | GI50 (LOX IMVI) | GI50 (SF-268) | GI50 (786-0) | GI50 (HCT-15) [µM] | GI50 (COLO 205) | GI50 (UO-31) | GI50 (NCI-H460) | GI50 (SK-MEL-2) | GI50 (M14) | GI50 (MOLT-4) | GI50 (M19-MEL) | GI50 (SW-620) | GI50 (UACC-257) | GI50 (SN12C) | GI50 (LXFL 529) | GI50 (NCI-H226)
1 | COC(=O)/C=C1\CCC(C)O1 (stereo unspecified) | > 100 µM (inactive) | > 100 µM (inactive) | > 100 µM (inactive) | > 100 | > 100 µM (inactive) | > 100 µM (inactive) | > 100 µM (inactive) | > 100 µM (inactive) | > 100 µM (inactive) | > 100 µM (inactive) | > 100 µM (inactive) | > 100 µM (inactive) | > 100 µM (inactive) | > 100 µM (inactive) | > 100 µM (inactive) | 
2 | CC1(C)CCc2cc3c(cc2O1)OCCC3=O | > 100 µM (inactive) | > 100 µM (inactive) | > 100 µM (inactive) | > 100 | > 100 µM (inactive) | 94.2 µM (inactive) | > 100 µM (inactive) |  | > 100 µM (inactive) | > 100 µM (inactive) | > 100 µM (inactive) | > 100 µM (inactive) | > 100 µM (inactive) | > 100 µM (inactive) | > 100 µM (inactive) | > 100 µM (inactive)
3 | [N-]=[N+]=NC(c1cn(C2CC(O)C(CO)O2)c(=O)[nH]c1=O)C(Br)I (stereo unspecified) | > 100 µM (inactive) |  | > 100 µM (inactive) | > 100 | > 100 µM (inactive) | > 100 µM (inactive) | > 100 µM (inactive) | > 100 µM (inactive) | > 100 µM (inactive) | > 100 µM (inactive) | > 100 µM (inactive) | > 100 µM (inactive) |  | > 100 µM (inactive) | > 100 µM (inactive) | > 100 µM (inactive)
4 | COc1ccc2c(C3(O)CCNCC3)c[nH]c2c1 | > 100 µM (inactive) | > 100 µM (inactive) | > 100 µM (inactive) | > 100 | > 100 µM (inactive) | > 100 µM (inactive) | > 100 µM (inactive) | > 100 µM (inactive) | > 100 µM (inactive) | > 100 µM (inactive) | > 100 µM (inactive) | > 100 µM (inactive) |  | > 100 µM (inactive) | > 100 µM (inactive) | 
5 | CCOc1ccc(NC(=O)/C(=C\c2ccc(C)cc2)C(C)=O)cc1 | > 100 µM (inactive) | > 100 µM (inactive) | > 100 µM (inactive) | > 100 | > 100 µM (inactive) | > 100 µM (inactive) |  | > 100 µM (inactive) | > 100 µM (inactive) | > 100 µM (inactive) | > 100 µM (inactive) | > 100 µM (inactive) | > 100 µM (inactive) | > 100 µM (inactive) | > 100 µM (inactive) | > 100 µM (inactive)
6 | CCOC(=O)CSc1cc[nH]c(=O)n1 | > 100 µM (inactive) | > 100 µM (inactive) | > 100 µM (inactive) | > 100 | > 100 µM (inactive) | > 100 µM (inactive) | > 100 µM (inactive) | > 100 µM (inactive) | > 100 µM (inactive) | > 100 µM (inactive) | > 100 µM (inactive) | > 100 µM (inactive) | > 100 µM (inactive) | > 100 µM (inactive) | > 100 µM (inactive) | 
7 | CC(C)C.C[N+](C)(C)C.OC(c1ccccc1)(C(F)(F)F)C(F)(F)F.OC(c1ccccc1)(C(F)(F)F)C(F)(F)F.[SiH3-] |  |  | 2.97 µM (inactive) | 2.13 | 6.49 µM (inactive) | 5.79 µM (inactive) | 2.04 µM (inactive) | 9.1 µM (inactive) | 1.05 µM (active) | 1.73 µM (inactive) | 12.2 µM (inactive) | 5 µM (inactive) | 14.1 µM (inactive) | 5.68 µM (inactive) | 4.19 µM (inactive) | 1.02 µM (active)
8 | CC1CC(=O)C2CC(CO)=CCCC2C1(C)CC/C(=C/CO)CO (stereo unspecified) | > 10 µM (inactive) |  | > 100 µM (inactive) | > 100 | > 100 µM (inactive) | > 100 µM (inactive) | > 100 µM (inactive) |  | > 100 µM (inactive) | > 100 µM (inactive) | > 100 µM (inactive) | > 100 µM (inactive) | > 100 µM (inactive) | > 100 µM (inactive) | > 100 µM (inactive) | > 100 µM (inactive)
